US12410171B2, “Tropomyosin receptor kinase (TRK) degradation compounds and methods of use” (Cullgen (Shanghai), Inc., priority 2020, dated 2025)
Where two headings read alike, the source gives them in different places.

Tested on: KM12 cells
Experiment: KM12 cell viability (CellTiter-Glo)
Format: cell-based
Settings: Homo sapiens, 72 h, KM12 cell viability, CellTiter-Glo, read-out: IC50
Protocol: KM12 or H358 cells were treated with 1000 nM CPD-053 following an 8-point 3-fold serial dilution for 3 days.
KM12 cells seeded in 96-well plates were treated with heterobifunctional compounds following a 11-point 3-fold serial dilution for 3 days.
KM12, H358, HEL, SU-DHL-1 and other cells were cultured at 37° C. with 5% CO2 in RPMI 1640 Medium supplemented with 10% fetal bovine serum. Cells were authenticated using the short tandem repeat (STR) assays. Mycoplasma test results were negative. Stable cell lines were established by lentivirus transduction, selected and maintained in medium containing 1 μg/mL puromycin (Beyotime Biotechnology).
Cells were seeded at a density of 5000 cells per well in 96-well assay plates and treated with test compounds following a 12-point 2-fold serial dilution or a 8-point 3-fold dilution, or 11-point 3-fold serial dilution. Three days later, cell viability was determined using the CellTiter-Glo assay kit (Promega) according to the manufacturer's instructions. The dose-response curves were determined and IC50 values were calculated using the GraphPad Prism software following a nonlinear regression (least squares fit) method.

[1] = 11-point 3-fold serial dilution, 3 days

SMILES	IC50 (three days treatment) [µM]	IC50 [1] [µM]
Cc1ncsc1-c1ccc(CNC(=O)[C@@H]2CC(O)CN2C(=O)[C@@H](NC(=O)CCOCCOCCOCCOCCOCCC(=O)N2CCN(c3ccc(C(=O)Nc4n[nH]c5ccc(Cc6cc(F)cc(F)c6)cc45)c(NC4CCOCC4)c3)CC2)C(C)(C)C)cc1 (stereo partly drawn) [CPD-043, (28,4R)-1-((S)-2-(tert-butyl)-22-(4-(4-((5-(3,5-Difluorobenzyl)-1H-indazol-3-yl)carbamoyl)-3-((tetrahydro-2H-pyran-4-yl)amino)phenyl)piperazin-1-yl)-4,22-dioxo-7,10,13,16,19-pentaoxa-3-azadocosanoyl)-4-hydroxy-N-(4-(4-methylthiazol-5-yl)benzyl)pyrrolidine-2-carboxamide]	> 1	–
Cc1ncsc1-c1ccc(CNC(=O)[C@@H]2C[C@@H](O)CN2C(=O)[C@@H](NC(=O)CCCCCCC(=O)N2CCN(Cc3ccc(NC(=O)c4coc(N5CCOCC5)n4)c(N4CCC(C(N)=O)CC4)c3)CC2)C(C)(C)C)cc1 [CPD-492, N-(2-(4-carbamoylpiperidin-1-yl)-4-((4-(8-(((S)-1-((2S,4R)-4-hydroxy-2-((4-(4-methylthiazol-5-yl)benzyl)carbamoyl)pyrrolidin-1-yl)-3,3-dimethyl-1-oxobutan-2-yl)amino)-8-oxooctanoyl)piperazin-1-yl)methyl)phenyl)-2-morpholinooxazole-4-carboxamide]	–	0.178
Cc1ncsc1-c1ccc(CNC(=O)[C@@H]2C[C@@H](O)CN2C(=O)[C@@H](NC(=O)CCOCCOCCC(=O)N2CCN(Cc3ccc(NC(=O)c4coc(N5CCOCC5)n4)c(N4CCC(C(N)=O)CC4)c3)CC2)C(C)(C)C)cc1 [CPD-495]	–	> 10
O=C1CCC(N2C(=O)c3ccc(CN4CCN(c5ccc(C(=O)Nc6n[nH]c7ccc(Cc8cc(F)cc(F)c8)cc67)c(NC6CCOCC6)c5)CC4)cc3C2=O)C(=O)N1 (stereo not shown) [TR-274, N-(5-(3,5-Difluorobenzyl)-1H-indazol-3-yl)-4-(4-((2-(2,6-dioxopiperidin-3-yl)-1,3-dioxoisoindolin-5-yl)methyl)piperazin-1-yl)-2-((tetrahydro-2/-pyran-4-yl)amino)benzamide]	0.44	–
O=C1CCC(N2Cc3cc(OCCN4CCN(c5cccc(-c6cnc7ccc(N8CCC[C@@H]8c8cccc(F)c8)nn67)n5)CC4)ccc3C2=O)C(=O)N1 (stereo partly drawn) [TR-200, 3-(5-(2-(4-(6-(6-((R)-2-(3-fluorophenyl)pyrrolidin-1-yl)imidazo[1,2-b]pyridazin-3-yl)pyridin-2-yl)piperazin-1-yl)ethoxy)-1-oxoisoindolin-2-yl)piperidine-2,6-dione]	0.101	–
Cc1ncsc1-c1ccc(CNC(=O)[C@@H]2C[C@@H](O)CN2C(=O)[C@@H](NC(=O)COCCOCCOCCOCCOCC(=O)N2CCN(c3cccc(-c4cnc5ccc(N6CCCC6c6cccc(F)c6)nn45)n3)CC2)C(C)(C)C)cc1 (stereo partly drawn) [CPD-003, (25,4R)-1-((S)-2-(tert-butyl)-20-(4-(6-(6-((R)-2-(3-Fluorophenyl)pyrrolidin-1-yl)imidazo[1,2-b]pyridazin-3-yl)pyridin-2-yl)piperazin-1-yl)-4,20-dioxo-6,9,12,15,18-pentaoxa-3-azaicosanoyl)-4-hydroxy-N-(4-(4-methylthiazol-5-yl)benzyl)pyrrolidine-2-carboxamide]	> 1	–
Cc1ncsc1-c1ccc(CNC(=O)[C@@H]2C[C@@H](O)CN2C(=O)[C@@H](NC(=O)CCOCCOCCOCCOCCOCCC(=O)N2CCN(c3cccc(-c4cnc5ccc(N6CCCC6c6cccc(F)c6)nn45)n3)CC2)C(C)(C)C)cc1 (stereo partly drawn) [CPD-005, (25,4R)-1-((S)-2-(tert-butyl)-22˜ (4-(6-(6-((R)-2˜ (3-Fluorophenyl)pyrrolidin-1-yl)imidazo[1,2-b]pyridazin-3-yl)pyridin-2-yl)piperazin-1-yl)-4,22-dioxo-7,10,13,16,19-pentaoxa-3-azadocosanoyl)-4-hydroxy-N-(4-(4-methylthiazol-5-yl)benzyl)pyrrolidine-2-carboxamide]	> 1	–
COc1ccc(COc2ccc(Cn3c(N)nc4cc(-c5cnn(CC(=O)NCCOCCOCCNc6cccc7c6C(=O)N(C6CCC(=O)NC6=O)C7=O)c5)cnc43)cc2OC)cc1 (stereo not shown) [CPD-503, 2-(4-(2-amino-3-(3-methoxy-4-((4-methoxybenzyl)oxy)benzyl)-3H-imidazo[4,5-b]pyridin-6-yl)-1H-pyrazol-1-yl)-N-(2-(2-(2-((2-(2,6-dioxopiperidin-3-yl)-1,3-dioxoisoindolin-4-yl)amino)ethoxy)ethoxy)ethyl)acetamide]	–	0.504
Cc1ncsc1-c1ccc(CNC(=O)[C@@H]2C[C@@H](O)CN2C(=O)[C@@H](NC(=O)CCOCCOCCOCCOCCC(=O)N2CCC(Nc3cccc(C(=O)Nc4cnn5ccc(N6CCC[C@@H]6c6cc(F)ccc6F)nc45)n3)CC2)C(C)(C)C)cc1 [CPD-468, N-(5-((R)-2-(2,5-difluorophenyl)pyrrolidin-1-yl)pyrazolo[1,5-a]pyrimidin-3-yl)-6-((1-((S)-18-((2S,4R)-4-hydroxy-2-((4-(4-methylthiazol-5-yl)benzyl)carbamoyl)pyrrolidine-1-carbonyl)-19,19-dimethyl-16-oxo-4,7,10,13-tetraoxa-17-azaicosanoyl)piperidin-4-yl)amino)picolinamide]	–	> 1
Cc1ncsc1-c1ccc(CNC(=O)[C@@H]2C[C@@H](O)CN2C(=O)[C@@H](NC(=O)CCC(=O)N2CCN(Cc3ccc(NC(=O)c4coc(N5CCOCC5)n4)c(N4CCC(C(N)=O)CC4)c3)CC2)C(C)(C)C)cc1 [CPD-490, N-(2-(4-carbamoylpiperidin-1-yl)-4-((4-(4-(((S)-1-((2S,4R)-4-hydroxy-2-((4-(4-methylthiazol-5-yl)benzyl)carbamoyl)pyrrolidin-1-yl)-3,3-dimethyl-1-oxobutan-2-yl)amino)-4-oxobutanoyl)piperazin-1-yl)methyl)phenyl)-2-morpholinooxazole-4-carboxamide]	–	2.8
O=C1CCC(N2C(=O)c3ccc(NCC(=O)N4CCC(Nc5cccc(C(=O)Nc6cnn7ccc(N8CCC[C@@H]8c8cc(F)ccc8F)nc67)n5)CC4)cc3C2=O)C(=O)N1 (stereo partly drawn) [CPD-460, N-(5-((R)-2-(2,5-difluorophenyl)pyrrolidin-1-yl)pyrazolo[1,5-a]pyrimidin-3-yl)-6-((1-((2-(2,6-dioxopiperidin-3-yl)-1,3-dioxoisoindolin-5-yl)glycyl)piperidin-4-yl)amino)picolinamide]	–	0.032
Cc1ncsc1-c1ccc(CNC(=O)[C@@H]2C[C@@H](O)CN2C(=O)[C@@H](NC(=O)CCOCCOCCOCCC(=O)N2CCN(Cc3ccc(NC(=O)c4coc(N5CCOCC5)n4)c(N4CCC(C(N)=O)CC4)c3)CC2)C(C)(C)C)cc1 [CPD-496, N-(2-(4-carbamoylpiperidin-1-yl)-4-((4-((S)-15-((2S,4R)-4-hydroxy-2-((4-(4-methylthiazol-5-yl)benzyl)carbamoyl)pyrrolidine-1-carbonyl)-16,16-dimethyl-13-oxo-4,7,10-trioxa-14-azaheptadecanoyl)piperazin-1-yl)methyl)phenyl)-2-morpholinooxazole-4-carboxamide]	–	8.76
O=C1CCC(N2C(=O)c3ccc(N4CC(CN5CCN(c6cccc(-c7cnc8ccc(N9CCC[C@@H]9c9cccc(F)c9)cn78)n6)CC5)C4)cc3C2=O)C(=O)N1 (stereo partly drawn) [TR-234, 2-(2,6-dioxopiperidin-3-yl)-5-(3-((4-(6-(6-((R)-2-(3-fluorophenyl)pyrrolidin-1-yl)imidazo[1,2-a]pyridin-3-yl)pyridin-2-yl)piperazin-1-yl)methyl)azetidin-1-yl)isoindoline-1,3-dione]	0.284	–
